Test results taken from patent US20020026053A1, “Novel 3-(substituted) -2- indolinones compounds and use thereof as inhibitors of protein kinase activity” (priority 1997, published 2002).
Several values for one entry are separate records, joined by “and”; a condition that tells them apart may be missing. Identical values can stand only once.

Each compound was assayed against T1, Met receptor (EGFR/Met chimeric cells, EMR) (Homo sapiens, UniProt P08581) (assay: Met Autophosphorylation Assay).
T1 construct: expressed in transfected cells; the other entry of the earlier key: EGFR (P00533, Epidermal growth factor receptor)
T1 sequence (P08581 with tags, fused parts or gaps): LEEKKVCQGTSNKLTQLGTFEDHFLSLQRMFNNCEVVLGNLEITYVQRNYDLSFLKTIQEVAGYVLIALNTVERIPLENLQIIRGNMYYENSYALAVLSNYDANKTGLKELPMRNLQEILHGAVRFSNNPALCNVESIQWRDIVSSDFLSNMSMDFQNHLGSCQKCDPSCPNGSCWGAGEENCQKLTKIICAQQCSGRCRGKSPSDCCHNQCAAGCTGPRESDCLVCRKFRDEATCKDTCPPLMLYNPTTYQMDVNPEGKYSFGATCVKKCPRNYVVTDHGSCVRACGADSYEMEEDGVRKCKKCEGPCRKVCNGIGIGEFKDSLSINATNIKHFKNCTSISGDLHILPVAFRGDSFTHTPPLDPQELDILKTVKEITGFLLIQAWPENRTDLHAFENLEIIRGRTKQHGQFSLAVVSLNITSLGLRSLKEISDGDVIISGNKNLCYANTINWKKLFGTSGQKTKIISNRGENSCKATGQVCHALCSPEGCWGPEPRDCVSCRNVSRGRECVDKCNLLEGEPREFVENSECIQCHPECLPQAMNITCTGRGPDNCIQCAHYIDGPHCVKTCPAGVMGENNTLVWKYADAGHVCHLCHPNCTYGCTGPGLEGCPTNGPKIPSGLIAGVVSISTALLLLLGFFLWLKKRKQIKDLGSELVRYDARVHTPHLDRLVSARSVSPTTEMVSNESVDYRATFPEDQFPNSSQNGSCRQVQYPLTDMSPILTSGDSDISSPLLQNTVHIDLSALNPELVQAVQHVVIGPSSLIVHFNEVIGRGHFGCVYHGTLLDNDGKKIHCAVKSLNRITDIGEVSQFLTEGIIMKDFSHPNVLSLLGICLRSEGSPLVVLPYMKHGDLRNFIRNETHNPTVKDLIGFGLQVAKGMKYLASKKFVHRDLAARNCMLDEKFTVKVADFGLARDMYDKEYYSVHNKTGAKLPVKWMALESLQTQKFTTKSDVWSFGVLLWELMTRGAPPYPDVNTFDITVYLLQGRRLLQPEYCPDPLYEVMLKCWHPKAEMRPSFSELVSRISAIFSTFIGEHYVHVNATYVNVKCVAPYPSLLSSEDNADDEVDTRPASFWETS
Format: biochemical
Procedure: Met Autophosphorylation Assay
This assay determines Met tyrosine kinase activity by analyzing Met protein tyrosine kinase levels on the Met receptor.
a. HNTG (5× stock solution): Dissolve 23.83 g HEPES and 43.83 g NaCl in about 350 ml dH2O. Adjust pH to 7.2 with HCl or NaOH, add 500 ml glycerol and 10 ml Triton X-100, mix, add dH2O to 1 L total volume. To make 1 L of 1× working solution add 200 ml 5× stock solution to 800 ml dH2O, check and adjust pH as necessary, store at 4° C.
b. PBS (Dulbecco's Phosphate-Buffered Saline), Gibco Cat. # 450-1300EB (1× solution).
c. Blocking Buffer: in 500 ml dH2O place 100 g BSA, 12.1 g Tris-pH7.5, 58.44 g NaCl and 10 ml Tween-20, dilute to 1 L total volume.
d. Kinase Buffer: To 500 ml dH2O add 12.1 g TRIS (pH 7.2), 58.4 g NaCl, 40.7 g MgCl2 and 1.9 g EGTA; bring to 1 L total volume with dH2O.
e. PMSF (Phenylmethylsulfonyl fluoride), Sigma Cat. # P-7626, to 435.5 mg, add 100% ethanol to 25 ml total volume, vortex.
f. ATP (Bacterial Source), Sigma Cat. # A-7699, store powder at −20° C.; to make up solution for use, dissolve 3.31 mg in 1 ml dH2O.
g. RC-20H HRPO Conjugated Anti-Phosphotyrosine, Transduction Laboratories Cat. # E120H.
h. Pierce 1-Step Turbo™ B-ELISA (3,3′,5,5′-tetramethylbenzidine, Pierce Cat. # 34022.
i. H2SO4, add 1 ml conc.(18 N) to 35 ml dH2O.
j. TRIS HCL, Fischer Cat. # BP152-5; to 121.14 g of material, add 600 ml MilliQ H2O, adjust pH to 7.5 (or 7.2) with HCl, bring volume to 1 L with MilliQ H2O.
k. NaCl, Fischer Cat. # S271-10, make up 5M solution.
m. Na3VO4, Fischer Cat. # S454-50, to 1.8 g material add 80 ml MilliQ H2O, adjust pH to 10.0 with HCl or NaOH, boil in microwave, cool, check pH, repeat procedure until pH stable at 10.0, add MilliQ H2O to 100 ml total volume, make 1 ml aliquots and store at −80° C.
n. MgCl2, Fischer Cat. # M33-500, make up 1M solution.
o. HEPES, Fischer Cat. # BP310-500, to 200 ml MilliQ H2O, add 59.6 g material, adjust pH to 7.5, bring volume to 250 ml total, sterile filter.
p. Albumin, Bovine (BSA), Sigma Cat. # A-4503, to 30 grams material add sterile distilled water to make total volume of 300 ml, store at 4° C.
q. TBST Buffer: to approx. 900 ml dH2O in a 1 L graduated cylinder add 6.057 g TRIS and 8.766 g NaCl, when dissolved, adjust pH to 7.2 with HCl, add 1.0 ml Triton X-100 and bring to 1 L total volume with dH2O.
r. Goat Affinity purified antibody Rabbit IgG (whole molecule), Cappel Cat. # 55641.
s. Anti h-Met (C-28) rabbit polyclonal IgG antibody, Santa Cruz Chemical Cat. # SC-161.
t. Transiently Transfected EGFR/Met chimeric cells (EMR) (Komada, et al., Oncogene, 8:2381-2390 (1993).
u. Sodium Carbonate Buffer, ([…], Fischer Cat. # S495) to 10.6 g material add 800 ml MilliQ H2O, when dissolved adjust pH to 9.6 with NaOH, bring up to 1 L total volume with MilliQ H2O, filter, store at 4° C.
All of the following steps are conducted at room temperature unless it is specifically indicated otherwise. All ELISA plate washing is by rinsing 4× with TBST.
This procedure can be performed the night before or immediately prior to the start of receptor capture.
1. Quick thaw lysates in a 37° C. waterbath with a swirling motion until the last crystals disappear.
2. Lyse cell pellet with 1× HNTG containing 1 mM PMSF. Use 3 ml of HNTG per 15 cm dish of cells. Add ½ the calculated HNTG volume, vortex the tube for 1 min., add the remaining amount of HNTG, vortex for another min.
3. Balance tubes, centrifuge at 10,000× g for 10 min at 4° C.
4. Pool supernatants, remove an aliquot for protein determination.
5. Quick freeze pooled sample in dry ice/ethanol bath. This step is performed regardless of whether lysate will be stored overnight or used immediately following protein determination.
6. Perform protein determination using standard bicinchoninic acid (BCA) method (BCA Assay Reagent Kit from Pierce Chemical Cat. # 23225).
1. Coat Corning 96 well ELISA plates with 5 μg per well Goat anti-Rabbit antibody in Carbonate Buffer for a total well volume of 50 μl. Store overnight at 4° C. […]

Compared with Cc1c(Br)cc(Br)c2c1C(=Cc1ccc(F)cc1)C(=O)N2 [10717/H05], Cc1c(Br)cc(Br)c2c1C(=Cc1ccc(Br)cc1)C(=O)N2 [10717/H08] is higher in “Met Kinase % Inhibition (P.130)” value: 16.3% for the first, 23.0% for the second.

Compared with Cc1c(Br)cc(Br)c2c1C(=Cc1c[nH]c3ccccc13)C(=O)N2 [10717/H06], Cc1c(Br)cc(Br)c2c1C(=Cc1coc3ccccc3c1=O)C(=O)N2 [10727/H07] is lower in “Met Kinase % Inhibition (P.130)” value: 30.5% for the first, 26.8% for the second.

Going from Cc1ccc(C=C2C(=O)Nc3c(Br)cc(Br)c(C)c32)s1 [10717/H07] to CCc1ccc(C=C2C(=O)Nc3c(Br)cc(Br)c(C)c32)s1 [10726/H10], the “Met Kinase % Inhibition (P.130)” value rises from 9.1% to 45.7%.

Going from Cc1c(Br)cc(Br)c2c1C(=Cc1ccc[nH]1)C(=O)N2 [10717/H09] to Cc1c(Br)cc(Br)c2c1C(=Cc1ccccn1)C(=O)N2 [10729/H07], the “Met Kinase % Inhibition (P.130)” value rises from 8.8% to 81.0%.

Going from COc1cccc(O)c1C=C1C(=O)Nc2c(Br)cc(Br)c(C)c21 [10717/H10] to COc1cccc(OC)c1C=C1C(=O)Nc2c(Br)cc(Br)c(C)c21 [10728/H03], the “Met Kinase % Inhibition (P.130)” value falls from 52.3% to 15.6%.

First: Cc1[nH]c(C=C2C(=O)Nc3c(Br)cc(Br)c(C)c32)c(Br)c1Br [10717/H11]
Second: CCc1cc(CC)c(C=C2C(=O)Nc3c(Br)cc(Br)c(C)c32)[nH]1 [10727/H03]
The “Met Kinase % Inhibition (P.130)” value of the first is higher: 58.2% for the first, 49.2% for the second.

Going from Cc1c(Br)cc(Br)c2c1C(=Cc1ccc(Br)o1)C(=O)N2 [10726/H05] to Cc1cc(C=C2C(=O)Nc3c(Br)cc(Br)c(C)c32)oc1C [10730/H11], the “Met Kinase % Inhibition (P.130)” value falls from 80.2% to 32.6%.

Compared with Cc1cn(C)cc1C=C1C(=O)Nc2c(Br)cc(Br)c(C)c21 [10726/H06], Cc1ccsc1C=C1C(=O)Nc2c(Br)cc(Br)c(C)c21 [10729/H05] is lower in “Met Kinase % Inhibition (P.130)” value: 35.1% for the first, 27.9% for the second.

Compared with Cc1c(Br)cc(Br)c2c1C(=Cc1cc(O)c3c(c1O)CCCC3)C(=O)N2 [10726/H07], Cc1c(Br)cc(Br)c2c1C(=Cc1cc(O)ccc1O)C(=O)N2 [10727/H10] is higher in “Met Kinase % Inhibition (P.130)” value: 80.9% for the first, 89.7% for the second.

Compared with Cc1c(Br)cc(Br)c2c1C(=C1C(=O)Nc3ccc(F)cc31)C(=O)N2 [10726/H08], Cc1c(Br)cc(Br)c2c1C(=C1C(=O)Nc3ccccc31)C(=O)N2 [10726/H09] is lower in “Met Kinase % Inhibition (P.130)” value: 71.2% for the first, 68.1% for the second.

First: COc1ccc(C=C2C(=O)Nc3c(Br)cc(Br)c(C)c32)cc1 [10726/H11]
Second: CSc1ccc(C=C2C(=O)Nc3c(Br)cc(Br)c(C)c32)cc1 [10729/H04]
The “Met Kinase % Inhibition (P.130)” value of the first is higher: 40.8% for the first, 25.1% for the second.

Compared with CCN(CC)c1ccc(C=C2C(=O)Nc3c(Br)cc(Br)c(C)c32)cc1 [10727/H02], Cc1c(Br)cc(Br)c2c1C(=Cc1ccc(C#N)cc1)C(=O)N2 [10727/H09] is lower in “Met Kinase % Inhibition (P.130)” value: 55.5% for the first, 31.1% for the second.

First: Cc1c(Br)cc(Br)c2c1C(=Cc1cc(Cl)cc(Br)c1O)C(=O)N2 [10727/H04]
Second: Cc1c(Br)cc(Br)c2c1C(=Cc1cc3c(cc1Cl)OCO3)C(=O)N2 [10727/H06]
The “Met Kinase % Inhibition (P.130)” value of the first is higher: 81.7% for the first, 5.2% for the second.

First: Cc1c(Br)cc(Br)c2c1C(=Cc1ccccc1Sc1ccc(Cl)cc1)C(=O)N2 [10727/H05]
Second: Cc1c(Br)cc(Br)c2c1C(=Cc1cc3ccccc3nc1Cl)C(=O)N2 [10730/H08]
The “Met Kinase % Inhibition (P.130)” value of the first is lower: 20.6% for the first, 57.8% for the second.

First: Cc1c(Br)cc(Br)c2c1C(=Cc1cccc(C#N)c1)C(=O)N2 [10727/H08]
Second: Cc1c(Br)cc(Br)c2c1C(=Cc1cccnc1)C(=O)N2 [10729/H08]
The “Met Kinase % Inhibition (P.130)” value of the first is lower: 12.3% for the first, 44.0% for the second.

Compared with COc1cccc(C=C2C(=O)Nc3c(Br)cc(Br)c(C)c32)c1OC [10727/H11], COc1ccc(C=C2C(=O)Nc3c(Br)cc(Br)c(C)c32)c(OC)c1OC [10730/H02] is higher in “Met Kinase % Inhibition (P.130)” value: 17.9% for the first, 32.0% for the second.

Going from COc1ccc(OC)c(C=C2C(=O)Nc3c(Br)cc(Br)c(C)c32)c1 [10728/H02] to COc1cc(C=C2C(=O)Nc3c(Br)cc(Br)c(C)c32)cc(OC)c1 [10728/H04], the “Met Kinase % Inhibition (P.130)” value rises from 25.8% to 32.9%.

Going from Cc1c(Br)cc(Br)c2c1C(=Cc1ccc3c(c1)Cc1ccccc1-3)C(=O)N2 [10728/H06] to CCn1c2ccccc2c2cc(C=C3C(=O)Nc4c(Br)cc(Br)c(C)c43)ccc21 [10731/H02], the “Met Kinase % Inhibition (P.130)” value falls from 28.5% to 16.4%.

Going from Cc1c(Br)cc(Br)c2c1C(=Cc1cccc(C(F)(F)F)c1F)C(=O)N2 [10728/H07] to Cc1c(Br)cc(Br)c2c1C(=Cc1c(F)cccc1C(F)(F)F)C(=O)N2 [10728/H09], the “Met Kinase % Inhibition (P.130)” value falls from 45.8% to 30.5%.

Going from Cc1c(Br)cc(Br)c2c1C(=Cc1ccccc1OCC(=O)O)C(=O)N2 [10728/H10] to CC(=O)n1cc(C=C2C(=O)Nc3c(Br)cc(Br)c(C)c32)c2ccccc21 [10730/H05], the “Met Kinase % Inhibition (P.130)” value falls from 65.2% to 30.7%.

First: COc1cc(C=C2C(=O)Nc3c(Br)cc(Br)c(C)c32)cc2c1OCO2 [10728/H11]
Second: COc1cc(C=C2C(=O)Nc3c(Br)cc(Br)c(C)c32)cc(OC)c1OC [10730/H04]
The “Met Kinase % Inhibition (P.130)” value of the first is lower: 8.0% for the first, 37.1% for the second.

Going from COc1ccc2ccccc2c1C=C1C(=O)Nc2c(Br)cc(Br)c(C)c21 [10729/H02] to COc1ccc(C=C2C(=O)Nc3c(Br)cc(Br)c(C)c32)c2ccccc12 [10729/H03], the “Met Kinase % Inhibition (P.130)” value falls from 25.5% to 2.8%.

First: Cc1c(Br)cc(Br)c2c1C(=Cc1cccc(Oc3ccccc3)c1)C(=O)N2 [10729/H06]
Second: Cc1c(Br)cc(Br)c2c1C(=Cc1ccc(-c3ccccc3Cl)o1)C(=O)N2 [10730/H07]
The “Met Kinase % Inhibition (P.130)” value of the first is lower: 28.4% for the first, 38.7% for the second.

Compared with Cc1c(Br)cc(Br)c2c1C(=Cc1ccncc1)C(=O)N2 [10729/H09], Cc1c(Br)cc(Br)c2c1C(=Cc1ccc(N3CCCC3)cc1)C(=O)N2 [10729/H10] is lower in “Met Kinase % Inhibition (P.130)” value: 45.1% for the first, 12.8% for the second.

Compared with Cc1c(Br)cc(Br)c2c1C(=CC1C=CCCC1)C(=O)N2 (centres unmarked) [10729/H11], COC1CC(C=C2C(=O)Nc3c(Br)cc(Br)c(C)c32)C(OC)O1 (centres unmarked) [10730/H10] is lower in “Met Kinase % Inhibition (P.130)” value: 36.1% for the first, 24.9% for the second.

First: COc1cc(OC)c(OC)cc1C=C1C(=O)Nc2c(Br)cc(Br)c(C)c21 [10730/H03]
Second: Cc1cc2occ(C=C3C(=O)Nc4c(Br)cc(Br)c(C)c43)c(=O)c2cc1C [10731/H03]
The “Met Kinase % Inhibition (P.130)” value of the first is higher: 28.3% for the first, 23.3% for the second.

COc1cc(N(C)C)ccc1C=C1C(=O)Nc2c(Br)cc(Br)c(C)c21 [10728/H05] was tested, and the “Met Kinase % Inhibition (P.130)” value was 41.2% and 33.9%.
